One experiment concerns LOX IMVI. As to the kind of experiment: NCI cytotoxicity screen (SRB). It counts as cell-based, human. Conditions: 48 h; Melanoma LOX IMVI.
The test system of another experiment is SNB-78. As to the kind of experiment: NCI cytotoxicity screen (SRB). It counts as cell-based, human.
The test system of the next experiment is calf thymus DNA. As to the kind of experiment: circular dichroism (CD) titration, calf thymus DNA. It counts as binding. Conditions: for isobestic point: calf thymus DNA; for binding site size: from saturation point r'~0.25; for saturation point r': moles of drug to moles of DNA base pairs. The procedure: The DNA binding properties of the present compounds were assessed by circular dichroism (CD) titration experiments. Methods for CD titration can be found, for example, in Zimmer et al. (1986) Prog. Biophys. Molec. Biol 47, 31. The conformation of DNA can be readily determined by CD experiments, and for B-DNA, characteristic positive and negative Cotton effects are observed at 260 and 245 nm, respectively.
The interaction of Compounds 6-10 to a number of DNAs [calf thymus, poly(dA dT) and poly(dG dC)] were analyzed by CD titration studies. All the CD titration experiments were performed using identical procedures, concentrations of DNA, and increments of drug:DNA ratios (or `r`, i.e. moles of drug to moles of DNA base pairs). Therefore, the differences observed in the CD spectra for the titration of each of the compounds to the polydeoxynucleotides may be directly compared to reflect their DNA binding properties.
All experiments were performed with a continuous flow of nitrogen purging the polarimeter. A 1 mm path length jacketed cell was used and all experiments were done at room temperature. Initially, DNA [0.02 μ moles (base pairs), 130 μL] was placed in the cell and the spectrum of the DNA alone was collected. Aliquots of drug were added and the spectra collected. The drug solutions were 1 mM and amounts of the drug added correspond to a drug to base pair ratio of 0.05, 0.10, 0.15, 0.20, 0.25, 0.30, 0.40, 0.50, 0.60, 0.80, 1.00. The scan parameters were set and standard for all experiments. The spectra were collected from 400 nm to 200 nm. The sensitivity was set at 1 mdeg and the scan speed was set at 20 nm per minute. Three scans were accumulated and automatically averaged by the computer. The λmax and ellipticity (mdeg) for each spectrum were collected from the raw scans and the final plots were smoothed by the noise reduction program on the computer. […] The induced CD band is presumably due to the uv absorption π to π^* transition of the drug in the drug:DNA complex. […] Therefore interaction of these drugs with DNA causes only minor conformational changes in the double helix.
On the technique in general: Circular dichroism is widely used to follow secondary structure.

The next experiment relates to 786-0. As to the kind of experiment: NCI cytotoxicity screen (SRB). The format is cell-based, human.
For a further experiment, the system named is ACHN. As to the kind of experiment: NCI cytotoxicity screen (SRB). The format is cell-based, human.
A further experiment concerns CAKI-1. As to the kind of experiment: NCI cytotoxicity screen (SRB). It counts as cell-based, human.
The next experiment concerns HOP-92. As to the kind of experiment: NCI cytotoxicity screen (SRB). The format is cell-based, human. Conditions: subsequent test date.
The next experiment concerns LOX 1MV1. As to the kind of experiment: NCI cytotoxicity screen (SRB). It counts as cell-based, human.
The subject of a further experiment is LXFL529. As to the kind of experiment: NCI cytotoxicity screen (SRB). It counts as cell-based, human.
The next experiment deals with M14. As to the kind of experiment: NCI cytotoxicity screen (SRB). The format is cell-based, human.
The test system of a further experiment is M19-MEL. As to the kind of experiment: NCI cytotoxicity screen (SRB). The format is cell-based, human.
In the next experiment the test system is OVCAR-3. As to the kind of experiment: NCI cytotoxicity screen (SRB). It counts as cell-based, human.
In the next experiment the test system is OVCAR-4. As to the kind of experiment: NCI cytotoxicity screen (SRB). The format is cell-based, human.
Another experiment has as its system RXF-393. As to the kind of experiment: NCI cytotoxicity screen (SRB). The format is cell-based, human.
The test system of the next experiment is RXR-631. As to the kind of experiment: NCI cytotoxicity screen (SRB). It counts as cell-based, human.
A further experiment concerns SK-MEL-5. As to the kind of experiment: NCI cytotoxicity screen (SRB). The format is cell-based, human.
Another experiment deals with SK-OV-3. As to the kind of experiment: NCI cytotoxicity screen (SRB). It counts as cell-based, human.
Another experiment has as its system SNB-19. As to the kind of experiment: NCI cytotoxicity screen (SRB). It counts as cell-based, human.
For another experiment, the system named is SR. As to the kind of experiment: NCI cytotoxicity screen (SRB). The format is cell-based, human.
In a further experiment the test system is TK-10. As to the kind of experiment: NCI cytotoxicity screen (SRB). The format is cell-based, human.
In a further experiment the test system is VO-31. As to the kind of experiment: NCI cytotoxicity screen (SRB). The format is cell-based, human.

As usually defined, the IC50 is the concentration needed to halve the response being measured. Read a low IC50 as greater potency in that assay. Take `CN(C)CCNC(=O)c1nc(NC(=O)c2nc(NC(=O)c3nc(NC(=O)CCCc4ccc(N(CCCl)CCCl)cc4)cn3C)cn2C)cn1C` [Compound 10, N-(N',N'-dimethylaminoethyl)-1-methyl-4-{1-methyl-4-[4-(4,4-bis(2-chloroethyl)aminophenyl-1-butanamido)-1-methylimidazole-2-carboxamido]imidazole-2-carboxamido}imidazole-2-carboxamide]: the IC50 stood at 6.44 µM in the experiment on LOX IMVI and 9.75 µM in the experiment with SNB-78 (48 h, CNS Cancer SNB-78).

`CN(C)CCNC(=O)c1nc(NC(=O)c2nc(NC(=O)CCCc3ccc(N(CCCl)CCCl)cc3)cn2C)cn1C` [Compound 9, N-(N',N'-dimethylaminoethyl)-1-methyl-4-{4-[4,4-bis(2-chloroethyl)aminophenyl-1-butanamido]-1-methylimidazole-2-carboxamido}imidazole-2-carboxamide] had an IC50 with LOX IMVI of 49.5 µM.

As for `CN(C)CCNC(=O)c1nc(NC(=O)c2nc(NC(=O)c3nc(NC(=O)c4ccc(N(CCCl)CCCl)cc4)cn3C)cn2C)cn1C` [Compound 7, N-(N',N'-dimethylaminoethyl)-1-methyl-4-{1-methyl-4-[4-(4,4-bis-(2-chloroethyl)aminobenzamido)-1-methylimidazole-2-carboxamido]imidazole-2-carboxamido}imidazole-2-carboxamide], in the experiment on calf thymus DNA (335 nm, r'=0.2), the “weak negative CD band, ellipticity” value turned out to be 0.5 mdeg. This molecule also displayed an isobestic point in the experiment with calf thymus DNA of 300 nm. Moreover, the binding site size entry in the experiment with calf thymus DNA is “four”. For the same molecule, in the experiment with calf thymus DNA, the “saturation point r'” value is ~ 0.25. In addition, the IC50 in the experiment with 786-0 (786-0, subsequent test date) was 0.51 µM; in the experiment on ACHN (48 h, Renal Cancer ACHN) it was 7.05 µM; with ACHN (ACHN, subsequent test date), 4.92 µM; in the experiment with CAKI-1 (48 h, Renal Cancer CAKI-1) it was over 100 µM; in the experiment with HOP-92, 3.33 µM; in the experiment with LOX 1MV1 (48 h, Melanoma LOX 1MV1) it was 0.89 µM. The IC50 amounted to 4.51 µM in the experiment with LOX 1MV1 (LOX 1MV1, subsequent test date); 0.54 µM with LXFL529 (LXFL529, subsequent test date); 0.59 µM in the experiment on M14 (M14, subsequent test date); 0.78 µM in the experiment with M19-MEL (M19-MEL, subsequent test date); 0.72 µM with OVCAR-3 (48 h, Ovarian Cancer OVCAR-3); 0.62 µM in the experiment on OVCAR-3 (OVCAR-3, subsequent test date). Also, the IC50 with OVCAR-4 (48 h, Ovarian Cancer OVCAR-4) was 0.61 µM; with OVCAR-4 (OVCAR-4, subsequent test date), 0.5 µM; with RXF-393 (48 h, Renal Cancer RXF-393) it was 0.66 µM; in the experiment on RXR-631 (48 h, Renal Cancer RXR-631) it was 5.97 µM; with SK-MEL-5 (48 h, Melanoma SK-MEL-5) it was 0.63 µM; with SK-OV-3 (48 h, Ovarian Cancer SK-OV-3) it was 0.83 µM. The IC50 was 0.48 µM in the experiment with SK-OV-3 (SK-OV-3, subsequent test date); over 100 µM in the experiment on SNB-19 (48 h, CNS Cancer SNB-19); 0.91 µM in the experiment with SR (48 h, Leukemia SR); 4.2 µM with TK-10 (48 h, Renal Cancer TK-10); 3.51 µM in the experiment with TK-10 (TK-10, subsequent test date); over 100 µM in the experiment with VO-31 (48 h, Renal Cancer VO-31). The molecule also gave a half-maximal inhibitory concentration (IC50) in the experiment on VO-31 (VO-31, subsequent test date) of 96.6 µM.

In the case of `CN(C)CCNC(=O)c1nc(NC(=O)c2nc(NC(=O)c3ccc(N(CCCl)CCCl)cc3)cn2C)cn1C` [Compound 6, N-(N',N'-dimethylaminoethyl)-1-methyl-4-{4-[4,4-bis(2-chloroethyl)aminobenzamido]-1-methylimidazole-2-carboxamido}imidazole-2-carboxamide], the “negative CD band, ellipticity” value is 0.2 mdeg in the experiment with calf thymus DNA (310 nm, r'=0.2, low drug concentration) and ~ 3 mdeg in the experiment on calf thymus DNA (315 nm, r'>0.4, higher drug concentrations). In addition, in the experiment on calf thymus DNA (340 nm, r'=0.2, low drug concentration), the “weak positive CD band, ellipticity” value was determined as 0.8 mdeg. For the same molecule, in the experiment on calf thymus DNA, the isobestic point worked out at 320 nm. Also, the binding site size entry in the experiment on calf thymus DNA is “about four”. For the same molecule, in the experiment with calf thymus DNA, the “saturation point r'” value is ~ 0.25. Also, in the experiment on calf thymus DNA (r'>0.4, higher drug concentrations), the “positive CD band at 340 nm, in words” value was “disappeared”. Also, the IC50 stood at 6.98 µM with 786-0 (786-0, subsequent test date); 25.4 µM in the experiment on 786-0 (48 h, Renal Cancer 786-0); 54.2 µM with ACHN (48 h, Renal Cancer ACHN); 46.9 µM in the experiment with ACHN (ACHN, subsequent test date); 51.9 µM in the experiment with CAKI-1 (48 h, Renal Cancer CAKI-1); 59.7 µM in the experiment on CAKI-1 (CAKI-1, subsequent test date). For the same molecule, the IC50 is 42.7 µM with HOP-92; 7.47 µM in the experiment with LOX 1MV1 (LOX 1MV1, subsequent test date); 13.2 µM with LXFL529 (48 h, Non-Small Cell Lung Cancer LXFL529); 34.8 µM in the experiment on LXFL529 (LXFL529, subsequent test date); 5.92 µM in the experiment on M14 (48 h, Melanoma M14); 5.81 µM in the experiment on M14 (M14, subsequent test date). Also, the IC50 came out at 5.64 µM with M19-MEL (48 h, Melanoma M19-MEL); 5.65 µM in the experiment on M19-MEL (M19-MEL, subsequent test date); 56 µM in the experiment with OVCAR-3 (48 h, Ovarian Cancer OVCAR-3); 56.7 µM with OVCAR-3 (OVCAR-3, subsequent test date); 34.2 µM with OVCAR-4 (48 h, Ovarian Cancer OVCAR-4); 14.3 µM in the experiment with OVCAR-4 (OVCAR-4, subsequent test date). The IC50 was found to be 50.3 µM with RXF-393 (48 h, Renal Cancer RXF-393); 44.3 µM in the experiment on RXF-393 (RXF-393, subsequent test date); 6.61 µM in the experiment on RXR-631 (48 h, Renal Cancer RXR-631); 9.95 µM in the experiment on RXR-631 (RXR-631, subsequent test date); 52 µM in the experiment with SK-MEL-5 (SK-MEL-5, subsequent test date); 52.9 µM with SK-OV-3 (48 h, Ovarian Cancer SK-OV-3). In addition, the IC50 is 6.18 µM in the experiment on SK-OV-3 (SK-OV-3, subsequent test date); 43.7 µM in the experiment on SNB-19 (48 h, CNS Cancer SNB-19); 32.4 µM with SNB-19 (SNB-19, subsequent test date); 67.2 µM in the experiment on SNB-78 (48 h, CNS Cancer SNB-78); 78.9 µM with SNB-78 (SNB-78, subsequent test date); 10.4 µM in the experiment with SR (48 h, Leukemia SR). Further, the IC50 is over 100 µM with SR (SR, subsequent test date); 59.9 µM in the experiment with TK-10 (48 h, Renal Cancer TK-10); 56.2 µM in the experiment with TK-10 (TK-10, subsequent test date); 59.2 µM in the experiment on VO-31 (48 h, Renal Cancer VO-31); 57.9 µM in the experiment with VO-31 (VO-31, subsequent test date).

Values taken from patent US5273991A, “Imidazole-containing compositions and methods of use thereof analogs of distamycin” (Research Corporation Technologies, Inc., priority 1992, dated 1993).
